The values below come from patent US20050245520A1, “2-Phenylpyridin-4-yl derivatives as alk5 inhibitors” (priority 2002, published 2005).

The structures appear in SMILES notation. Where two headings read alike, the source gives them in different places. Bounds are passed on as bounds.

For orientation: IC50 means the concentration at which inhibition is half-maximal.

Assay [1] deals with T1, recombinant GST-ALK5 (residues 198-503) (Homo sapiens, UniProt P36897).
T1 construct: assays using recombinant GST-ALK5 (residues 198-503)
T1 sequence (P36897 198-503): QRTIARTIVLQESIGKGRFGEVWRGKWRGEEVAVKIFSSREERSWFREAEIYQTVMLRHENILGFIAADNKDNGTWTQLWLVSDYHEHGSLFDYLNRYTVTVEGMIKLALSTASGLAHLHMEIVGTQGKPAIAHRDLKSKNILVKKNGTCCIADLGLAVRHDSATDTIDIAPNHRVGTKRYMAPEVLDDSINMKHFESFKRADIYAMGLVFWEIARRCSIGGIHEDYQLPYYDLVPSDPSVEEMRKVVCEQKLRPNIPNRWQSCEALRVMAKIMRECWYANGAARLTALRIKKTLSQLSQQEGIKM
In words: Alk5 fluorescence polarization assay (displacement of rhodamine green-labelled ligand). Format: binding.
Description: Kinase inhibitor compounds conjugated to fluorophores, can be used as fluorescent ligands to monitor ATP competitive binding of other compounds to a given kinase. The increase in depolarization of plane polarized light, caused by release of the bound ligand into solution, is measured as a polarization/anisotropy value.
The compounds were serially diluted (3-fold in 100% DMSO) across the plate to column 11 to yield 11 concentrations for each test compound. Column 12 contained only DMSO.
ALK5 was added to assay buffer containing the above components and 1 nM of the rhodamine green-labelled ligand so that the final ALK5 concentration was 10 nM based on active site titration of the enzyme. The enzyme/ligand reagent (39 μl) was added to each well of the previously prepared assay plates. […] The plates were read immediately on a LJL Acquest fluorescence reader (Molecular Devices, serial number AQ1048) with excitation, emission, and dichroic filters of 485 nm, 530 nm, and 505 nm, respectively. The fluorescence polarization for each well was calculated by the Acquest reader and then imported into curve fitting software for construction of concentration response curves. The normalized response was determined relative to the high controls (1 μl DMSO in column 12, rows A-D) and the low controls (1 μl of control compound in column 12, rows E-H). An IC50 value was then calculated for each compound

In assay [2] the test system is TGF-β signalling (PAI-1 promoter-luciferase in HepG2 cells). In words: Cellular transcriptional assay: PAI-1 promoter firefly luciferase reporter in cells exposed to TGF-β. Type of assay: cell-based. Particulars: for IC50: HepG2 cells, 1 ng/mL rhTGFβ-1. The procedure: Assay 1 (Cellular Transcriptional Assay)
The assay was performed in HepG2 cells stably transfected with the PAI-1 promoter (known to be a strong TGF-β responsive promoter) linked to a luciferase (firefly) reporter gene. The compounds were selected on their ability to inhibit luciferase activity in cells exposed to TGF-β. In addition, cells were transfected with a second luciferase (Renilla) gene which was not driven by a TGF-β responsive promoter and was used as a toxicity control.
96 well microplates were seeded, using a multidrop apparatus, with the stably transfected cell line at a concentration of 35000 cells per well in 200 μl of serum-containing medium. These plates were placed in a cell incubator.
18 to 24 hours later (Day 2), cell-incubation procedure was launched. Cells were incubated with TGF-β and a candidate compound at concentrations in the range 50 nM to 10 μM (final concentration of DMSO 1%). The final concentration of TGF-β (rhTGFβ-1) used in the test was 1 ng/mL. Cells were incubated with a candidate compound 15-30 mins prior to the addition of TGF-β. The final volume of the test reaction was 150 μl. Each well contained only one candidate compound and its effect on the PAI-1 promoter was monitored.
Columns 11 and 12 were employed as controls. Column 11 contained 8 wells in which the cells were incubated in the presence of TGF-β, without a candidate compound. Column 11 was used to determine the ‘reference TGF-β induced firefly luciferase value’ against which values measured in the test wells (to quantify inhibitory activity) were compared. […]
12 to 18 hours later (day 3), the luciferase quantification procedure was launched. […] Following agitation (15 to 30 mins), luciferase activities of the plates were read in a dual-injector luminometer (BMG lumistar). For this purpose, 50 μl of luciferase assay reagent and 50 μl of ‘Stop & Glo’ buffer were injected sequentially to quantify the activities of both luciferases. […] For each of the compounds tested, a concentration response curve was constructed from which an IC50 value was determined graphically.

On to `Cc1cccc(-c2nc(C(C)C)[nH]c2-c2ccnc(-c3ccc(C(=O)NC4CCOCC4)cc3)c2)n1` [Example 96, N-(tetrahydropyran-4-yl)-4-(4-{2-isopropyl-5-[6-methyl-pyridin-2-yl]-1H-imidazol-4-yl}-pyridin-2-yl)-benzamide], for which the 50% inhibitory concentration (IC50) in assay [1] was 25 nM; in assay [2] (Homo sapiens), under 14 nM.

For `Cc1cccc(-c2[nH]c(C(C)(C)C)nc2-c2ccnc(-c3ccc(N4CCOCC4)cc3)c2)n1` [Example 86, 4-{4-[4-(2-tert-Butyl-5-{6-methyl}-pyridin-2-yl-1 H-imidazol-4-yl)-pyridin-2-yl]-phenyl}-morpholine], the IC50 in assay [1] (fluorescence polarization, 10 nM ALK5, 1 nM labelled ligand, read-out: ALK5 receptor modulator activity (IC50)) is 34 nM; in assay [2], 183 nM.

Consider `O=C1C=CCC1` [CPO, Cyclopentenone, reference compound], for which the “firefly and renilla luciferase activities (toxicity control)” value in assay [2] (500 μM CPO in presence of TGF-β, relative to TGF-β only) is “around 50%”.
